The text below walks through data of US8168651B2, “Protein kinase modulators” (Cylene Pharmaceuticals, Inc., priority 2008, dated 2012).

For test [1], the system named is MiaPaca human pancreatic carcinoma cells. Put plainly: Cell-proliferation assay using Alamar Blue dye. The test is classed as cell-based. The following applies: MIA PaCa-2, Table 45. On the procedure:
A representative cell-proliferation assay protocol using Alamar Blue dye (stored at 4° C., use 20 ul per well) is described hereafter.
• a. Split and trypsinize cells. • b. Count cells using hemocytometer. • c. Plate 4,000-5,000 cells per well in 100 μl of medium and seed into a 96-well plate according to the following plate layout. Add cell culture medium only to wells B10 to B12. Wells B1 to B9 have cells but no compound added.
• d. Add 100 μl of 2× drug dilution to each well in a concentration shown in the plate layout above. At the same time, add 100 μl of media into the control wells (wells B10 to B12). Total volume is 200 μl/well. • e. Incubate four (4) days at 37° C., 5% CO2 in a humidified incubator. • f. Add 20 μl Alamar Blue reagent to each well. • g. Incubate for four (4) hours at 37° C., 5% CO2 in a humidified incubator. • h. Record fluorescence at an excitation wavelength of 544 nm and emission wavelength of 590 nm using a microplate reader.
In the assays, cells are cultured with a test compound for approximately four days, the dye then is added to the cells and fluorescence of […] dye is detected after approximately four hours. Different types of cells can be utilized in the assays (e.g., HCT-116 human colorectal carcinoma cells, PC-3 human prostatic cancer cells and MiaPaca human pancreatic carcinoma cells). Anti-proliferative effects of representative compounds are provided hereafter

A further test addresses recombinant human PIM1 (Homo sapiens (Human), UniProt P11309). Put plainly: PIM-1 kinase activity in cell-free in vitro assay. As to conditions: Table 45. In kind it is biochemical.
A further test has as its system K-562. Put plainly: Cell proliferation modulatory activity, K-562. In kind it is cell-based. As to conditions: Homo sapiens, K562; Table 45; read-out: K-562 IC50.
For a further test, the system named is MV-4-11. Put plainly: Cell proliferation modulatory activity, MV-4-11. In kind it is cell-based. As to conditions: Homo sapiens, MV4-11; Table 45; read-out: MV-4-11 IC50.
The target in a further test is PIM2 (Homo sapiens (Human), UniProt Q9P1W9). In words: PIM2 IC50. In kind it is biochemical. The following applies: Table 45.
In a further test the test system is phosphoBAD ser 112. Put plainly: phosphoBAD ser 112 IC50. In kind it is cell-based. As to conditions: read-out: phosphoBAD ser 112 IC50; Table 45.
The test system of the next test is MDAMB231. Put plainly: MDAMB231 IC50. As to conditions: Homo sapiens, MDA-MB-231; Table 45. The test is classed as cell-based.

PIM2, sequence (Q9P1W9 whole entry): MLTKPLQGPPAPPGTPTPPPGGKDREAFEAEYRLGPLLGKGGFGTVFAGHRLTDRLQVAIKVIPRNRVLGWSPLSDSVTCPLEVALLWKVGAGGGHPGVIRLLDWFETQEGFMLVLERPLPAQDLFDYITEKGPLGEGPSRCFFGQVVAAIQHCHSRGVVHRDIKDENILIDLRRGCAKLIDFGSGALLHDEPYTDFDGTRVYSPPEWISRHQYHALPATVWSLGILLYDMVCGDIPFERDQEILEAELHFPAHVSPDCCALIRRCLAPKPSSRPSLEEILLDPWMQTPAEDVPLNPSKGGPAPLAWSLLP
recombinant human PIM1, sequence (P11309 whole entry): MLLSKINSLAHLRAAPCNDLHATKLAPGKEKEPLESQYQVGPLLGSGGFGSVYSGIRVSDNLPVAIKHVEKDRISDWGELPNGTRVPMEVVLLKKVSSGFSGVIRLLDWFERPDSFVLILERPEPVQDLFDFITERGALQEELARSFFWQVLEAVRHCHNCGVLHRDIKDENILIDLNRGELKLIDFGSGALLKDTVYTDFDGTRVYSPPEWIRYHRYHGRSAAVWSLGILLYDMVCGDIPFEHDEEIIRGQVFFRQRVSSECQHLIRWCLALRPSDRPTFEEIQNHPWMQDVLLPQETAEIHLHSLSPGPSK

Consider `c1cc(-c2nc[nH]n2)c2nc(NC3CC3)c3ccncc3c2c1`, for which the IC50 was under 1000 nM in test [1]; under 100 nM at recombinant human PIM1; under 100 nM with K-562; under 100 nM in the test with MV-4-11; under 100 nM against PIM2; under 100 nM in the test on phosphoBAD ser 112. Also, in the test on MDAMB231, the IC50 was under 1000 nM.
Consider `NC(=O)c1cccc2c1nc(Nc1cccc(Cl)c1)c1ccncc12` [drawing 2246], for which the IC50 is under 1000 nM in test [1]; under 100 nM on recombinant human PIM1; under 500 nM in the test on K-562; under 100 nM with MV-4-11; under 5000 nM in the test with phosphoBAD ser 112; under 10000 nM in the test on MDAMB231.
In the case of `Fc1cc(F)cc(Nc2nc3c(-c4nnc[nH]4)cccc3c3cnccc23)c1`, the IC50 in test [1] is under 1000 nM; at recombinant human PIM1, under 100 nM; in the test on K-562, under 5000 nM; in the test with MV-4-11 it was under 500 nM; against PIM2 it was under 500 nM; with phosphoBAD ser 112 it was under 1000 nM. In the test with MDAMB231, this compound showed an IC50 of over 10000 nM.
With `COc1cc(Nc2nc3c(-c4nc[nH]n4)cccc3c3cnccc23)ccc1F`, the IC50 in test [1] was under 10000 nM; on recombinant human PIM1, under 100 nM; in the test on K-562, under 5000 nM; with MV-4-11, under 500 nM; against PIM2 it was under 500 nM; with phosphoBAD ser 112, under 5000 nM. Moreover, the IC50 in the test on MDAMB231 was over 10000 nM.
As for `NC(=O)c1cccc2c1nc(Nc1ccc(F)cc1)c1ccncc12`, the IC50 in test [1] was under 1000 nM; at recombinant human PIM1 it was under 100 nM; in the test on K-562, under 5000 nM; with MV-4-11 it was under 100 nM; against PIM2 it was under 500 nM; in the test with phosphoBAD ser 112, under 100 nM. The IC50 in the test on MDAMB231 was over 30000 nM.
For the compound `Clc1cccc(Nc2nc3c(-c4nc[nH]n4)cccc3c3ccncc23)c1`, the IC50 in test [1] was over 10000 nM; at recombinant human PIM1, under 100 nM; in the test with K-562 it was over 10000 nM; in the test with MV-4-11 it was over 10000 nM; at PIM2, under 500 nM; with MDAMB231 it was over 10000 nM.
With `c1ccc(CCNc2nc3c(-c4nc[nH]n4)cccc3c3cnccc23)cc1`, the IC50 in test [1] was over 10000 nM; on recombinant human PIM1 it was under 100 nM; with K-562, over 10000 nM; in the test on MV-4-11 it was under 500 nM; on PIM2 it was under 500 nM; in the test on phosphoBAD ser 112, under 1000 nM. This compound also showed an IC50 with MDAMB231 of under 10000 nM.
In the case of `Fc1ccc(Nc2nc3c(-c4nc[nH]n4)cccc3c3cnccc23)cc1F`, the IC50 in test [1] is under 5000 nM; at recombinant human PIM1, under 100 nM; in the test with K-562 it was over 10000 nM; with MV-4-11 it was under 100 nM; against PIM2, under 500 nM; in the test on phosphoBAD ser 112, under 5000 nM. Moreover, in the test on MDAMB231, the IC50 was under 1000 nM.
Regarding `COCCNc1nc2c(-c3nc[nH]n3)cccc2c2cnccc12`, the IC50 in test [1] was under 5000 nM; on recombinant human PIM1 it was under 100 nM; in the test with K-562 it was under 10000 nM; in the test with MV-4-11, under 100 nM; against PIM2, under 500 nM; in the test with phosphoBAD ser 112, under 100 nM. For the same compound, the IC50 in the test with MDAMB231 is under 10000 nM.
Regarding `Fc1ccccc1Nc1nc2c(-c3nnc[nH]3)cccc2c2cnccc12`, the IC50 in test [1] was under 1000 nM; on recombinant human PIM1, under 100 nM; in the test with K-562 it was under 500 nM; in the test with MV-4-11, under 100 nM; against PIM2 it was under 100 nM; in the test on phosphoBAD ser 112 it was under 5000 nM.
In the case of `NC(=O)c1cccc2c1nc(Nc1cccc(F)c1)c1ccncc12`, the IC50 in test [1] is under 1000 nM; on recombinant human PIM1 it was under 500 nM; in the test on K-562 it was under 1000 nM; in the test with MV-4-11 it was under 120 nM; with phosphoBAD ser 112 it was under 100 nM; in the test on MDAMB231, under 1000 nM.
For `N#Cc1cccc(Nc2nc3c(-c4nc[nH]n4)cccc3c3cnccc23)c1`, the IC50 in test [1] is over 10000 nM; on recombinant human PIM1, under 100 nM; in the test on K-562 it was over 10000 nM; in the test with MV-4-11, under 100 nM; against PIM2, over 1100 nM; with phosphoBAD ser 112, under 5000 nM.
Consider `Clc1ccccc1Nc1nc2c(-c3nnc[nH]3)cccc2c2cnccc12` [drawing 2209], for which the IC50 was under 500 nM in test [1], under 5000 nM in the test with K-562, under 100 nM at PIM2 and under 500 nM in the test on MDAMB231.
For `c1cc(-c2nc[nH]n2)c2nc(NCC3CC3)c3ccncc3c2c1`, the IC50 in test [1] is under 10000 nM; at recombinant human PIM1 it was under 100 nM; with K-562 it was over 10000 nM; with MV-4-11, under 100 nM; against PIM2, under 500 nM; in the test with phosphoBAD ser 112, under 100 nM.
In the case of `FC(F)(F)c1cccc(Nc2nc3c(-c4nnc[nH]4)cccc3c3cnccc23)c1`, the IC50 in test [1] is under 5000 nM; at recombinant human PIM1, under 500 nM; in the test on K-562, under 5000 nM; with MV-4-11, under 500 nM; against PIM2, over 1100 nM; in the test on phosphoBAD ser 112, under 1000 nM.
As to `Cc1ccc(F)cc1Nc1nc2c(-c3nnc[nH]3)cccc2c2cnccc12`, the IC50 in the test with K-562 is over 10000 nM; on PIM2, under 100 nM; in the test on MDAMB231, over 10000 nM.
`COc1ccc(Nc2nc3c(-c4nc[nH]n4)cccc3c3cnccc23)cc1`: the IC50 in test [1] is under 500 nM; on recombinant human PIM1 it was under 100 nM; in the test with K-562, under 500 nM; in the test with MV-4-11 it was under 100 nM; against PIM2, under 100 nM; in the test on phosphoBAD ser 112 it was under 100 nM.
As to `Fc1ccc(Nc2nc3c(-c4nnc[nH]4)cccc3c3cnccc23)c(Cl)c1`, the IC50 in test [1] is over 10000 nM; on recombinant human PIM1, under 100 nM; with K-562 it was under 500 nM; in the test on MV-4-11, under 500 nM; on PIM2, under 100 nM; in the test with phosphoBAD ser 112, under 500 nM.
With `FC(F)(F)Oc1cccc(Nc2nc3c(-c4nnc[nH]4)cccc3c3cnccc23)c1`, the IC50 in test [1] is under 5000 nM; on recombinant human PIM1, under 500 nM; with K-562 it was under 500 nM; in the test with MV-4-11, under 500 nM; against PIM2, under 1000 nM; with phosphoBAD ser 112 it was under 5000 nM. Further, the IC50 in the test on MDAMB231 is over 10000 nM.
`Fc1ccc(Nc2nc3c(-c4nc[nH]n4)cccc3c3cnccc23)c(F)c1`: the IC50 in test [1] was under 5000 nM; on recombinant human PIM1 it was under 100 nM; in the test with K-562, under 5000 nM; in the test with MV-4-11, under 100 nM; against PIM2, under 100 nM; with phosphoBAD ser 112, under 100 nM. In the test on MDAMB231, this compound had an IC50 of under 5000 nM.
For the compound `Fc1cccc(F)c1Nc1nc2c(-c3nnc[nH]3)cccc2c2cnccc12`, the IC50 in test [1] is under 1000 nM; at recombinant human PIM1, under 100 nM; in the test with K-562 it was under 500 nM; in the test with MV-4-11, under 100 nM; on PIM2, under 100 nM; in the test with phosphoBAD ser 112, under 100 nM. In addition, in the test on MDAMB231, the IC50 was under 5000 nM.
For `COCCOc1ccc(Nc2nc3c(-c4nnc[nH]4)cccc3c3cnccc23)cc1`, the IC50 was under 1000 nM in test [1]; under 500 nM at recombinant human PIM1; over 10000 nM with K-562; under 100 nM in the test with MV-4-11; under 1000 nM on PIM2; under 500 nM in the test with phosphoBAD ser 112. Further, the IC50 in the test with MDAMB231 is under 10000 nM.
Consider `COCCOc1cccc(Nc2nc3c(-c4nnc[nH]4)cccc3c3cnccc23)c1`, for which the IC50 in test [1] is over 10000 nM; at recombinant human PIM1 it was under 500 nM; with K-562 it was over 10000 nM; in the test with MV-4-11, under 100 nM; with phosphoBAD ser 112 it was under 100 nM; in the test on MDAMB231, over 10000 nM.
In the case of `NC(=O)c1cccc2c1nc(Nc1cccc(Cl)c1)c1cnccc12`, the IC50 in test [1] was over 10000 nM; at recombinant human PIM1, under 500 nM; in the test on K-562, over 10000 nM; with MV-4-11, over 10000 nM; in the test on MDAMB231, over 10000 nM.
Consider `COc1ccccc1Nc1nc2c(-c3nnc[nH]3)cccc2c2cnccc12`, for which the IC50 on recombinant human PIM1 is under 100 nM; in the test on K-562 it was under 5000 nM; in the test with MV-4-11, under 100 nM; on PIM2, under 1000 nM; in the test with phosphoBAD ser 112, under 100 nM; with MDAMB231, under 5000 nM.
For `CN(c1ccc(Cl)cc1)c1nc2c(-c3nc[nH]n3)cccc2c2cnccc12`, the IC50 in test [1] is under 5000 nM; at recombinant human PIM1, under 100 nM; in the test on K-562, under 500 nM; in the test with MV-4-11 it was under 1000 nM; against PIM2, under 5000 nM; in the test on MDAMB231, over 10000 nM.
As for `Cc1ccccc1Nc1nc2c(-c3nnc[nH]3)cccc2c2cnccc12`, the IC50 was under 1000 nM in test [1], under 1000 nM with K-562 and over 10000 nM in the test with MDAMB231.
On to `CN(c1ccccc1Cl)c1nc2c(-c3nnc[nH]3)cccc2c2cnccc12`, for which the IC50 at recombinant human PIM1 is under 100 nM; in the test on K-562, under 5000 nM; in the test on MV-4-11, under 100 nM; at PIM2 it was under 1000 nM; in the test on phosphoBAD ser 112, under 5000 nM; with MDAMB231 it was over 10000 nM.
As to `Fc1cccc(Nc2nc3c(-c4nnc[nH]4)cccc3c3cnccc23)c1`, the IC50 is under 1000 nM in test [1], under 100 nM at recombinant human PIM1, under 500 nM in the test on MV-4-11 and under 500 nM in the test on phosphoBAD ser 112.
